Activity calls are given as the source filed them.
How the values were obtained:
[1] = molecular target: 72 kDa type IV collagenase (Homo sapiens, UniProt P08253); assay: Dose Response validation of uHTS RPN11 inhibitor hits using a MMP-2 Fluorescence assay.; type: functional
[2] = molecular target: Prothrombin (Bos taurus, UniProt P00735); assay: thrombin inhibition, dose response, biochemical, fluorescence polarization, uHTS hits (AID 602369); type: functional
[3] = molecular target: 26S proteasome non-ATPase regulatory subunit 14 (Homo sapiens, UniProt O00487); assay: inhibition of proteasome subunit RPN11 – biochemical, fluorescence polarization, uHTS hits, confirmation (AID 602368); type: functional
26S proteasome non-ATPase regulatory subunit 14, sequence (O00487 whole entry): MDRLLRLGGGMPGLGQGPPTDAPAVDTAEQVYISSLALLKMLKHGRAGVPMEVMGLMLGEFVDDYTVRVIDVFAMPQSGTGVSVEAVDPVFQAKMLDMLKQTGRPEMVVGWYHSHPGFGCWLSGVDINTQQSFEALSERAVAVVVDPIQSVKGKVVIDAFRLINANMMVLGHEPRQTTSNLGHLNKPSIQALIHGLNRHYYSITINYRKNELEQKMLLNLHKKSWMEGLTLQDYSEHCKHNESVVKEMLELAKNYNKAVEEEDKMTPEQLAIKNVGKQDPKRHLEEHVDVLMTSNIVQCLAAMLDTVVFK

[4] = molecular target: Genome polyprotein (dengue virus type 2, UniProt P29990); assay: Dengue-2 NS5 methyltransferase inhibitors, primary screen, biochemical, confirmation dose response (AID 588689); type: functional
Genome polyprotein, sequence (P29990 2492-3391 limits assumed): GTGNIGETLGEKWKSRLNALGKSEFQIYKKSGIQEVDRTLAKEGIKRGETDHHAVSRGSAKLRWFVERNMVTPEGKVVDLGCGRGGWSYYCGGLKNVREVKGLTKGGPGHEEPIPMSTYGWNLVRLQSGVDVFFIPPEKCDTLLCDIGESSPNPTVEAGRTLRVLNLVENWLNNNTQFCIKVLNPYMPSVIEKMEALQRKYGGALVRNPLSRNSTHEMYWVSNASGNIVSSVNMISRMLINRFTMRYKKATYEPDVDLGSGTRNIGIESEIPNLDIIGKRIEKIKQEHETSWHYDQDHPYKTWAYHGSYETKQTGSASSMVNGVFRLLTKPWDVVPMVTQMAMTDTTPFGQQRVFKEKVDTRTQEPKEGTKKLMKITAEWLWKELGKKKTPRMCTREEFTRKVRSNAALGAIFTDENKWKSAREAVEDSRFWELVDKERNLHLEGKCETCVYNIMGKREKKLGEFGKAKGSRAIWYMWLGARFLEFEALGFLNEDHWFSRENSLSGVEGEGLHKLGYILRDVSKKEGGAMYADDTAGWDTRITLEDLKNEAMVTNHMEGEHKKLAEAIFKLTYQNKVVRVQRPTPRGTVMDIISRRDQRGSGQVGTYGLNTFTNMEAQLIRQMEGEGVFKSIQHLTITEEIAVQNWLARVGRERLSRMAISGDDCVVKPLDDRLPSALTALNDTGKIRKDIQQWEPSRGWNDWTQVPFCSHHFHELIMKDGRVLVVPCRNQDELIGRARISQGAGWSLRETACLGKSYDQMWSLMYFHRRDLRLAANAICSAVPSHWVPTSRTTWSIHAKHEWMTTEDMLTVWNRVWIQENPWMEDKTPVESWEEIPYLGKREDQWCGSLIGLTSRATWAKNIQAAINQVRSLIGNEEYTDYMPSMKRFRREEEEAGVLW

[5] = molecular target: T1, Hepatocyte nuclear factor 4-alpha (Homo sapiens, UniProt P41235); type: functional, cell-based;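 also: biochemical luminescence-based dose-response counterscreen measuring inhibition of HNF4 dimerization, run alongside a screen for blockers of ABHD5–perilipin-5 interaction; split luciferase complementation of HNF4 fusion proteins in cell lysate measuring dimerization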
T1 sequence (P41235 whole entry): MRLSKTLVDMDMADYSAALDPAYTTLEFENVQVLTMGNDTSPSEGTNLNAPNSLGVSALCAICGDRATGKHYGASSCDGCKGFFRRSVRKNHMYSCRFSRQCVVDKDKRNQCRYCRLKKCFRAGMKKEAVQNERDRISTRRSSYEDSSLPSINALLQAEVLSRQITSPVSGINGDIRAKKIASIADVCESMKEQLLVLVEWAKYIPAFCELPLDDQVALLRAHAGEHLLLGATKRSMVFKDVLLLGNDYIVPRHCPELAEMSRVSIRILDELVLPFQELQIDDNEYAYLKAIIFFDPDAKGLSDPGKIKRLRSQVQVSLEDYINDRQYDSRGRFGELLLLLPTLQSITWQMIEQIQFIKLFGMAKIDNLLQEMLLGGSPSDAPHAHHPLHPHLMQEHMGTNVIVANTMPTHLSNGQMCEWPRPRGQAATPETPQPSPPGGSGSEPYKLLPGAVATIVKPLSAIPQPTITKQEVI

[6] = molecular target: T2, Endoribonuclease toxin MazF (Escherichia coli K-12, UniProt P0AE70); assay: MazF toxin RNase activators, dose response, biochemical, fluorescence, single-stranded RNA substrate, uHTS hits (AID 588481); type: functional
T2 sequence (P0AE70 whole entry): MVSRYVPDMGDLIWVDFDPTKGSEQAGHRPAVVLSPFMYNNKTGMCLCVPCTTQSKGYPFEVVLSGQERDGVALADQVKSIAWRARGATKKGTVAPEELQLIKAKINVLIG

[7] = molecular target: T3, Sentrin-specific protease 8 (Homo sapiens, UniProt Q96LD8); type: functional;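 also: luminescence read-out of SENP8 inhibition, dose-response confirmation following an ultra-high-throughput screen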
T3 sequence (Q96LD8 whole entry): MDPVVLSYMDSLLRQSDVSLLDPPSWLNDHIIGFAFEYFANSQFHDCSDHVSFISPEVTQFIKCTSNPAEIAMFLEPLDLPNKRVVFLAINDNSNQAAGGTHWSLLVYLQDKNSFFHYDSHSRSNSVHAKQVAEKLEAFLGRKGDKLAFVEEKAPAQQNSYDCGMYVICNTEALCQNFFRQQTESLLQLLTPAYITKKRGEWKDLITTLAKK

[8] = molecular target: T4, Sentrin-specific protease 6 (Homo sapiens, UniProt Q9GZR1); type: functional;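 also: Luminescence-based dose-response confirmatory assay of SENP6 inhibition, following up an ultra-high-throughput screen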
T4 sequence (Q9GZR1 whole entry): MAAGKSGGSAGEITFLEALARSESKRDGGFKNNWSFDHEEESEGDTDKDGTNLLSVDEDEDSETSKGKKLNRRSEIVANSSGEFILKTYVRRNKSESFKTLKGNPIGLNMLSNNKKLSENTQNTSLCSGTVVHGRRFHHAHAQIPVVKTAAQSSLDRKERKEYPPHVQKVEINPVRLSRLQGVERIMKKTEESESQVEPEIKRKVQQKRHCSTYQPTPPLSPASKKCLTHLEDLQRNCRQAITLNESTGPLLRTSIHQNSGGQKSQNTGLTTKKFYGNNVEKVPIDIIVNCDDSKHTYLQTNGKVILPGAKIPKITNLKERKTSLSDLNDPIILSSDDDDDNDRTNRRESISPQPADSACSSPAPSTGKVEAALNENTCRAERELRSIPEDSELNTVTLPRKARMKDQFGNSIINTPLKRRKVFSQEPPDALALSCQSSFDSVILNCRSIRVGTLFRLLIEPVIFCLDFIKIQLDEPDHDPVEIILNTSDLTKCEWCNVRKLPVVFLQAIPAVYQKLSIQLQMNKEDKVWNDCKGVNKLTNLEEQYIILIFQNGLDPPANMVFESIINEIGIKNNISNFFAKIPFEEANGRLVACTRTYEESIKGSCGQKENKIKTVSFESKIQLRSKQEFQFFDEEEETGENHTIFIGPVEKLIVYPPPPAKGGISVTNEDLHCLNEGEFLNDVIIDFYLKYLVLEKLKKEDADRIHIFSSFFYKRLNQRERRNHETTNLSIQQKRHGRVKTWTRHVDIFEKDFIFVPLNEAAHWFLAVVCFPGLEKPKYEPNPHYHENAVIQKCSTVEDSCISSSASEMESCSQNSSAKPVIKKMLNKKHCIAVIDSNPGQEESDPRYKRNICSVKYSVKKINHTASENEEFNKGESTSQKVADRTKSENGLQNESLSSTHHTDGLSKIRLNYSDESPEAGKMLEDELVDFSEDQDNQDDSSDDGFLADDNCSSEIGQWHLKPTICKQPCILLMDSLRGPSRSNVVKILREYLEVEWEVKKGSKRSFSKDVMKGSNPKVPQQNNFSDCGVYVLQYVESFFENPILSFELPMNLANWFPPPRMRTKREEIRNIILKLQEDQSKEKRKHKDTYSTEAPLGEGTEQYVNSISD

[9] = molecular target: T5, Caspase-3 (Homo sapiens, UniProt P42574); type: functional;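 also: Dose-response selectivity test against caspase-3 for candidate inhibitors of sentrin-specific proteases (SENPs)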
T5 sequence (P42574 whole entry): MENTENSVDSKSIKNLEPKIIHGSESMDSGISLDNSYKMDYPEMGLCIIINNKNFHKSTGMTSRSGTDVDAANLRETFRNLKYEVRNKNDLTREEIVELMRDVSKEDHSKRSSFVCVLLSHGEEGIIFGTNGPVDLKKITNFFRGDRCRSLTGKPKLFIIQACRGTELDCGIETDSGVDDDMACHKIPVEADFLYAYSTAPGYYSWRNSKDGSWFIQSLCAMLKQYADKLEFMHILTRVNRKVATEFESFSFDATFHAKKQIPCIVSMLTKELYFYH

[10] = molecular target: T2, Endoribonuclease toxin MazF; assay: fluorescent RNA oligo signal without MazF, dose response, counter-screen for MazEF activator project, biochemical, fluorescence, single-stranded RNase substrate (AID 588502); type: functional
[11] = molecular target: T6, Protein skinhead-1 (Caenorhabditis elegans, UniProt P34707); type: functional
T6 sequence (P34707 whole entry): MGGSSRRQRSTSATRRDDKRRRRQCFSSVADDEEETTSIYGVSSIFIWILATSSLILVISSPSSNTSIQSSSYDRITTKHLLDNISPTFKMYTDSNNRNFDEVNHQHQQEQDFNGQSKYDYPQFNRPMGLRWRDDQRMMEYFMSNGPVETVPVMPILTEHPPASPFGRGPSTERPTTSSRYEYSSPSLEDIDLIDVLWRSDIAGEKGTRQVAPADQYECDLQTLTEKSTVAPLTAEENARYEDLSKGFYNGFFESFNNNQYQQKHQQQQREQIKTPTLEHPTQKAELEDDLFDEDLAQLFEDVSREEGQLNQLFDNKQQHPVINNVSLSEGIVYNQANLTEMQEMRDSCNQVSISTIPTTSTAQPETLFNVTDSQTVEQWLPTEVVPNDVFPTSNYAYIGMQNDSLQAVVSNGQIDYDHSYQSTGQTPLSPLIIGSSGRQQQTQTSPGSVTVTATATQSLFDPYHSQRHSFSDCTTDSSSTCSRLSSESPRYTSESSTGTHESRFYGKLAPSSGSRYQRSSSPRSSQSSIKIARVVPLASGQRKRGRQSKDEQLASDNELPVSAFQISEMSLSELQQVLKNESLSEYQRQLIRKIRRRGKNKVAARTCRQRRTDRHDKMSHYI

[12] = molecular target: T7, Sentrin-specific protease 7 (Homo sapiens, UniProt Q9BQF6); type: functional;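 also: Luminescence-based dose-response confirmation of ultra-high-throughput screening hits, measuring inhibition of SENP7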
T7 sequence (Q9BQF6 whole entry): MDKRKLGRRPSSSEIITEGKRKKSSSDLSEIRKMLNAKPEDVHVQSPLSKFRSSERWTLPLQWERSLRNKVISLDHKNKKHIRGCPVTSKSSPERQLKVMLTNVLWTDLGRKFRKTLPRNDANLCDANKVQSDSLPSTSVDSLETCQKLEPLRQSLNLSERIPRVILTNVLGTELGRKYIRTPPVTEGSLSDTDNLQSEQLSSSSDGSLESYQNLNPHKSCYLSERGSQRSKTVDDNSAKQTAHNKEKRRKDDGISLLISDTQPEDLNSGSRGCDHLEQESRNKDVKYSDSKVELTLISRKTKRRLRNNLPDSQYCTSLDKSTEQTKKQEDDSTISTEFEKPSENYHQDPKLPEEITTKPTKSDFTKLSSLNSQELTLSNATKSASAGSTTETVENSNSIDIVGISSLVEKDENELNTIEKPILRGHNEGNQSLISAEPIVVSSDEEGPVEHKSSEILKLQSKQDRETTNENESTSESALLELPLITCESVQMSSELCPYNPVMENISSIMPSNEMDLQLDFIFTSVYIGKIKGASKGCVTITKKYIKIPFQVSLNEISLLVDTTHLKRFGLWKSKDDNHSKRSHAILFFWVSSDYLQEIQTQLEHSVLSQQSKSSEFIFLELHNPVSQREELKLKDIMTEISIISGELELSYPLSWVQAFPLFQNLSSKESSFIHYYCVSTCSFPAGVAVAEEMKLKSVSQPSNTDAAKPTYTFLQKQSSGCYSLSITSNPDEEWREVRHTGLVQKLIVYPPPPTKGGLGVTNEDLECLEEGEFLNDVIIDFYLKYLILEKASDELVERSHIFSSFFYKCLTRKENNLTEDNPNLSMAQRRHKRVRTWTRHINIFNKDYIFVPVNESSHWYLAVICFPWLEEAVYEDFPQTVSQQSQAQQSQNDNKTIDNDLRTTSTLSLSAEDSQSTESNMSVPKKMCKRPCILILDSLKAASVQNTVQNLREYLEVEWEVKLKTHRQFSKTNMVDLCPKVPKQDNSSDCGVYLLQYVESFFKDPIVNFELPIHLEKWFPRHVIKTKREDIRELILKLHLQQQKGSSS

[13] = cytotoxicity in HEK-293T cells, dose response, cytotoxicity control for BCR NF-kB inhibitor project, luminescence, B-cell screen hits (AID 489021); type: functional, cell-based;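 also: HEK-293T cells carrying an NF-kB luciferase reporter; cells exposed to compound for about 14 hours before viability readout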
[14] = molecular target: T8, Zinc finger protein mex-5 (Caenorhabditis elegans, UniProt Q9XUB2); assay: MEX-5/TCR-2 RNA interaction inhibitors, dose response, biochemical, C. elegans, fluorescence polarization (AID 1960)
T8 sequence (Q9XUB2 whole entry): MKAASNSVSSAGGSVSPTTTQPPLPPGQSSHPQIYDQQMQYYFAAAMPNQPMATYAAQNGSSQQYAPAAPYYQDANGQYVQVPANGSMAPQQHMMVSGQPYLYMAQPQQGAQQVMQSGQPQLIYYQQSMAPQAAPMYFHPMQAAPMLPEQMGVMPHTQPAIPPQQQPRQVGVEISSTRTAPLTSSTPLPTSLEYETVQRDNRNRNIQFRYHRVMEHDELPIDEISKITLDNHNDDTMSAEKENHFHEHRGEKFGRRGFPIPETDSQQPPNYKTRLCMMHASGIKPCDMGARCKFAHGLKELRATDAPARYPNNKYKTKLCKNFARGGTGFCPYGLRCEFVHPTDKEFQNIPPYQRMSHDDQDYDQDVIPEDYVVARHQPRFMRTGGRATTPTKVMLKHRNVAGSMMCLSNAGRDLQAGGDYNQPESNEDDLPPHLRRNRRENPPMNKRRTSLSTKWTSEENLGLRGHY

[15] = molecular target: T9, RNA-binding protein pos-1 (Caenorhabditis elegans, UniProt G5EF15); assay: inhibitors of POS-1/mex-3 RNA binding, dose response, biochemical, fluorescence polarization (AID 1964);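 also: purified POS-1 fused to maltose binding protein made in E. coli; potency of compounds blocking POS-1 binding to fluorescent RNA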
T9 sequence (G5EF15 whole entry): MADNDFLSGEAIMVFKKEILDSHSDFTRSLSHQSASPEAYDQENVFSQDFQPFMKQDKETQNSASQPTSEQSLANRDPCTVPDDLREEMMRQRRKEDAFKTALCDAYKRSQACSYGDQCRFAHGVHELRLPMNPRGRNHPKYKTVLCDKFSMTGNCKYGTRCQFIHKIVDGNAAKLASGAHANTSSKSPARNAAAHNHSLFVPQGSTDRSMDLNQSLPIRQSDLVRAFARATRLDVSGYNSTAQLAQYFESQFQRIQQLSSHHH

72 kDa type IV collagenase, sequence (P08253 whole entry): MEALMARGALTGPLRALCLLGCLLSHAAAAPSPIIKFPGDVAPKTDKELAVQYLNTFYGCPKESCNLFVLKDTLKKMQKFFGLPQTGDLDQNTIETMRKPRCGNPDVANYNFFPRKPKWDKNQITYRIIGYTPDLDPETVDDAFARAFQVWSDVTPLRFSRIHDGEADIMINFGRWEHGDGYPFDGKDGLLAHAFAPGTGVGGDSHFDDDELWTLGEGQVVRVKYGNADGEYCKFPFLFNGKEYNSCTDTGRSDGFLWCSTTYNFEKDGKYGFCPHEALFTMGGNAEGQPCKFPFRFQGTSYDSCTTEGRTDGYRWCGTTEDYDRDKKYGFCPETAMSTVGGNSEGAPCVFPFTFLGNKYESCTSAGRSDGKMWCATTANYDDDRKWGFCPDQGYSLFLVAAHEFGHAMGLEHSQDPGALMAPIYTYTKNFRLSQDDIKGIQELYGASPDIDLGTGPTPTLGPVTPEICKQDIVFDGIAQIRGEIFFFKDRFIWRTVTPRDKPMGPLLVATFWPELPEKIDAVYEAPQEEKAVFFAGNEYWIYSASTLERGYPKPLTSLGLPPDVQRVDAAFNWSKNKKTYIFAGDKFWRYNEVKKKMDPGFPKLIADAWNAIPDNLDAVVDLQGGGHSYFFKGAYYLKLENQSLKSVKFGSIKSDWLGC

Q: Which results are given for `COc1cc(/C=C2/SC(=S)N(CC(=O)Nc3nc4ccccc4s3)C2=O)cc(OC)c1OC`?
A: IC50 [1]: > 100 µM (inactive); IC50 [2]: 23.5 µM (active); IC50 [3]: 20.2 µM (active)

Q: What does the source list for `CC(=O)OCC1=C(C(=O)O)N2C(=O)C(NC(=O)CCn3nc(C(F)(F)F)c(Br)c3C3CC3)C2SC1` (stereo not given)?
A: IC50 [4]: 54.8 µM (active); IC50 [5]: 17.7 µM (inactive)

Q: With `O=C(NCc1ccccc1)C(c1ccc(-c2ccccc2)cc1)n1c(=O)c(-c2ccco2)nc2ccccc21` (stereo not given) as the compound, how does the IC50 [5] read?
A: Its IC50 is 3.34 µM (active).

Q: Which results are given for `CN(C)c1ccc(C(=O)/C=C/c2ccccc2)cc1`?
A: EC50 [6]: > 99 µM (inactive); IC50 [7]: 14.3 µM (active); IC50 [8]: 11.6 µM (active); IC50 [9]: 8.33 µM (active); EC50 [10]: > 99 µM (inactive); IC50 [11]: > 100 µM (inactive); IC50 [12]: 5.32 µM (active)

Q: With `COc1ccc(/C=C2/SC(=S)N(CCCC(=O)Nc3ccc(O)cc3)C2=O)cc1OC` as the compound, how does the IC50 [1] read?
A: The IC50 was > 100 µM (inactive).

Q: And the IC50 [13]?
A: Its IC50 is > 80 µM (inactive).

Q: What about the IC50 [2] of the same compound?
A: Its IC50 is 31.8 µM (active).

Q: What about the IC50 [3] of the same compound?
A: The IC50 was 25.2 µM (active).

Q: Which results are given for `CCCCn1c(/N=C/c2ccc(N(C)C)cc2)nc2ccccc21`?
A: IC50 [1]: > 100 µM (inactive); IC50 [2]: 7.12 µM (active); IC50 [3]: 5.14 µM (active)

Q: Which results are given for `CCOc1ccc(N2C(=O)/C(=C/Nc3ccnn3Cc3ccncc3)c3ccccc3C2=O)cc1`?
A: EC50 [14]: > 300 µM (not active); IC50 [1]: > 100 µM (inactive); EC50 [15]: > 300 µM (not active); IC50 [2]: 24.6 µM (active); IC50 [3]: 23.9 µM (active)
